Reference: patent publication US12173088B2, “Anti-microbial peptides” (priority 2018, dated 2024)
Values after ≈ are worked out from the molar mass of the structure shown.

Tested on: clinical strains of methicillin-resistant and susceptible S. aureus
Assay: microbe, parasite or virus in culture
Settings: Staphylococcus aureus

`CN[C@H](CC(C)C)C(=O)N[C@H]1C(=O)N[C@@H](CC(N)=O)C(=O)N[C@H]2C(=O)N[C@H]3C(=O)N[C@H](C(=O)N[C@H](C(=O)O)c4cc(O)cc(O)c4-c4cc3ccc4O)[C@H](O)c3ccc(c(Cl)c3)Oc3cc2cc(c3O[C@@H]2O[C@H](CO)[C@@H](O)[C@H](O)[C@H]2O[C@H]2C[C@](C)(N)[C@H](O)[C@H](C)O2)Oc2ccc(cc2Cl)[C@H]1O` [Vancomycin] showed an MIC (MSSA, strain B243-16 MSSA) of 0.5 µM (≈ 0.725 µg/mL), an MIC (MSSA, strain B254-16 MSSA) of 0.5 µM (≈ 0.725 µg/mL) and an MIC (MSSA, strain B255-16 MSSA) of 1 µM (≈ 1.45 µg/mL). For the same compound, the MIC (MSSA, strain B262-16 MSSA) was 0.5 µM (≈ 0.725 µg/mL), the MIC (MSSA, strain B269-16 MSSA) was 1 µM (≈ 1.45 µg/mL) and the MIC (NEWMAN, strain Newman) was 1 µM (≈ 1.45 µg/mL). The MIC (USA200, strain USA200) was 0.5 µM (≈ 0.725 µg/mL), the MIC (USA300, strain USA300) was 0.5 µM (≈ 0.725 µg/mL) and the MIC (USA400, strain USA400) was 1 µM (≈ 1.45 µg/mL). It also gave an MIC (strain M106-16) of 1 µM (≈ 1.45 µg/mL), an MIC (strain M108-16) of 1 µM (≈ 1.45 µg/mL) and an MIC (strain M109-16) of 0.5 µM (≈ 0.725 µg/mL). For the same compound, the MIC (strain M111-16) was 0.5 µM (≈ 0.725 µg/mL), the MIC (strain M112-16) was 0.5 µM (≈ 0.725 µg/mL) and the MIC (strain M113-16) was 1 µM (≈ 1.45 µg/mL). It also gave an MIC (strain M114-16) of 1 µM (≈ 1.45 µg/mL), an MIC (strain M116-16) of 0.5 µM (≈ 0.725 µg/mL) and an MIC (strain M117-16) of 0.5 µM (≈ 0.725 µg/mL). For the same compound, the MIC (strain M118-16) was 1 µM (≈ 1.45 µg/mL), the MIC (strain M119-16) was 0.5 µM (≈ 0.725 µg/mL) and the MIC (strain M120-16) was 0.5 µM (≈ 0.725 µg/mL). It also gave an MIC (strain M121-16) of 1 µM (≈ 1.45 µg/mL), an MIC (strain M122-16) of 1 µM (≈ 1.45 µg/mL) and an MIC (strain M123-16) of 0.5 µM (≈ 0.725 µg/mL). It also gave an MIC (strain M126-16) of 0.5 µM (≈ 0.725 µg/mL), an MIC (strain M127-16) of 0.5 µM (≈ 0.725 µg/mL) and an MIC (strain M128-16) of 1 µM (≈ 1.45 µg/mL). For the same compound, the MIC (strain M129-16) was 0.5 µM (≈ 0.725 µg/mL), the MIC (strain M130-16) was 0.5 µM (≈ 0.725 µg/mL) and the MIC (strain UAMS-1) was 2 µM (≈ 2.9 µg/mL). The MIC (strain mu50) was 2 µM (≈ 2.9 µg/mL).
